Source: PMC6120666 (The EMBO Journal, 2018)

What was measured:
Assay in all cases: Drug affinity chromatography with c-ponatinib and LC-MS/MS (ponatinib interactome)
Assay type in all cases: binding
[1] = molecular target: T1, proteins of U2OS cell lysate (Homo sapiens, UniProt P29597)
T1 construct: Proteins enriched by c-ponatinib from U2OS cell lysate; endogenous in cells; host or cells: U2OS cell lysate
In short: (§1)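 U2OS cell lysate in NP-40 lysis buffer (2 mg protein per pulldown) was incubated with amine-derivatized NHS beads for 2 h at 4 °C. Bound proteins were washed, eluted with 100 mM formic acid, reduced, alkylated and trypsin-digested, then identified by nano-UPLC–MS/MS on Orbitrap instruments with a 60 min gradient.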

[2] = molecular target: T2, proteins of U2OS cell lysate (Homo sapiens, UniProt Q9UP83)
T2 construct: Proteins enriched by c-ponatinib from U2OS cell lysate; endogenous in cells; host or cells: U2OS cell lysate
In short: as §1

[3] = molecular target: T3, proteins of U2OS cell lysate (Homo sapiens, UniProt P53999)
T3 construct: Proteins enriched by c-ponatinib from U2OS cell lysate; endogenous in cells; host or cells: U2OS cell lysate
In short: as §1

[4] = molecular target: T4, proteins of U2OS cell lysate (Homo sapiens, UniProt Q15428)
T4 construct: Proteins enriched by c-ponatinib from U2OS cell lysate; endogenous in cells; host or cells: U2OS cell lysate
In short: as §1

[5] = molecular target: T5, proteins of U2OS cell lysate (Homo sapiens, UniProt P62263)
T5 construct: Proteins enriched by c-ponatinib from U2OS cell lysate; endogenous in cells; host or cells: U2OS cell lysate
In short: as §1

[6] = molecular target: T6, proteins of U2OS cell lysate (Homo sapiens, UniProt P04049)
T6 construct: Proteins enriched by c-ponatinib from U2OS cell lysate; endogenous in cells; host or cells: U2OS cell lysate
In short: as §1

[7] = molecular target: T7, proteins of U2OS cell lysate (Homo sapiens, UniProt P49006)
T7 construct: Proteins enriched by c-ponatinib from U2OS cell lysate; endogenous in cells; host or cells: U2OS cell lysate
In short: as §1

[8] = molecular target: T8, proteins of U2OS cell lysate (Homo sapiens, UniProt Q15393)
T8 construct: Proteins enriched by c-ponatinib from U2OS cell lysate; endogenous in cells; host or cells: U2OS cell lysate
In short: as §1

[9] = molecular target: T9, proteins of U2OS cell lysate (Homo sapiens, UniProt Q9UQ35)
T9 construct: Proteins enriched by c-ponatinib from U2OS cell lysate; endogenous in cells; host or cells: U2OS cell lysate
In short: as §1

T7 sequence (P49006 whole entry): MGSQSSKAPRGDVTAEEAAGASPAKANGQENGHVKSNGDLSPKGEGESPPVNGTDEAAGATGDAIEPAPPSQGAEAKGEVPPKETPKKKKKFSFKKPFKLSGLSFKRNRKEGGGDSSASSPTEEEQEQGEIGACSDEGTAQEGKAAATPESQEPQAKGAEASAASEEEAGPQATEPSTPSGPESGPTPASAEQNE
T4 sequence (Q15428 whole entry): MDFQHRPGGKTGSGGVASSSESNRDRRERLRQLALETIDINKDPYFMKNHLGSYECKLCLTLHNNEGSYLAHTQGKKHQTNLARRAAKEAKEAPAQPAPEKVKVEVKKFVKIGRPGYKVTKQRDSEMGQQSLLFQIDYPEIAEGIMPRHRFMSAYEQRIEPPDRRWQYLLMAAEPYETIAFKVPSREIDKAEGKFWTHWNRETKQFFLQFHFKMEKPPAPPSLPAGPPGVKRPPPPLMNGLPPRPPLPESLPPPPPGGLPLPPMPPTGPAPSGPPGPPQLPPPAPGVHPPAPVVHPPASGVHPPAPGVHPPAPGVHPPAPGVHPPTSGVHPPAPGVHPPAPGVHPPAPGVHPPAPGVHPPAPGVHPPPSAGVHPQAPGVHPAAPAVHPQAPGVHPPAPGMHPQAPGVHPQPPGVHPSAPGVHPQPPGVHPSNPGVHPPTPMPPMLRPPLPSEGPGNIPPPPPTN
T2 sequence (Q9UP83 whole entry): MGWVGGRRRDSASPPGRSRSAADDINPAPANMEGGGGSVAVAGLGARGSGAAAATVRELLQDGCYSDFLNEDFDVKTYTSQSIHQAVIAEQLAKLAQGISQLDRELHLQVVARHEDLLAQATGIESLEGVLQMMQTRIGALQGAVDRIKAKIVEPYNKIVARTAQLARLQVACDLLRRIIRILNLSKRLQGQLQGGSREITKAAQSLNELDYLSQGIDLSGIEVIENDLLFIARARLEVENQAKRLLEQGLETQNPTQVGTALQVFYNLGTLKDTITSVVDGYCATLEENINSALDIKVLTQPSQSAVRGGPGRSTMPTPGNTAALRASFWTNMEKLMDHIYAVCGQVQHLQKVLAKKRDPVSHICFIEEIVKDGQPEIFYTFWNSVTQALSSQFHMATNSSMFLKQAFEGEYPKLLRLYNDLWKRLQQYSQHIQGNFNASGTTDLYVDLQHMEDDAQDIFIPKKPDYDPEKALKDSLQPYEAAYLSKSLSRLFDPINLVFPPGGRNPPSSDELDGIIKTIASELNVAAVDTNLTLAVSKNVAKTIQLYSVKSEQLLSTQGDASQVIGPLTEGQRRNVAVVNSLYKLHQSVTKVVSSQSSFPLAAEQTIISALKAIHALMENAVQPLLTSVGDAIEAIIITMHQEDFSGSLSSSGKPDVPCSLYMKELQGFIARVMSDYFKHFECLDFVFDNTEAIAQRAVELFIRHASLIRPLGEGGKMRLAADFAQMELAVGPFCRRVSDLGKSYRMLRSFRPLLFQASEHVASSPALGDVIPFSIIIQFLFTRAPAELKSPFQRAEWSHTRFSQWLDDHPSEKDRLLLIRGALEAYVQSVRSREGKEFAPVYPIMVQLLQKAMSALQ
T8 sequence (Q15393 whole entry): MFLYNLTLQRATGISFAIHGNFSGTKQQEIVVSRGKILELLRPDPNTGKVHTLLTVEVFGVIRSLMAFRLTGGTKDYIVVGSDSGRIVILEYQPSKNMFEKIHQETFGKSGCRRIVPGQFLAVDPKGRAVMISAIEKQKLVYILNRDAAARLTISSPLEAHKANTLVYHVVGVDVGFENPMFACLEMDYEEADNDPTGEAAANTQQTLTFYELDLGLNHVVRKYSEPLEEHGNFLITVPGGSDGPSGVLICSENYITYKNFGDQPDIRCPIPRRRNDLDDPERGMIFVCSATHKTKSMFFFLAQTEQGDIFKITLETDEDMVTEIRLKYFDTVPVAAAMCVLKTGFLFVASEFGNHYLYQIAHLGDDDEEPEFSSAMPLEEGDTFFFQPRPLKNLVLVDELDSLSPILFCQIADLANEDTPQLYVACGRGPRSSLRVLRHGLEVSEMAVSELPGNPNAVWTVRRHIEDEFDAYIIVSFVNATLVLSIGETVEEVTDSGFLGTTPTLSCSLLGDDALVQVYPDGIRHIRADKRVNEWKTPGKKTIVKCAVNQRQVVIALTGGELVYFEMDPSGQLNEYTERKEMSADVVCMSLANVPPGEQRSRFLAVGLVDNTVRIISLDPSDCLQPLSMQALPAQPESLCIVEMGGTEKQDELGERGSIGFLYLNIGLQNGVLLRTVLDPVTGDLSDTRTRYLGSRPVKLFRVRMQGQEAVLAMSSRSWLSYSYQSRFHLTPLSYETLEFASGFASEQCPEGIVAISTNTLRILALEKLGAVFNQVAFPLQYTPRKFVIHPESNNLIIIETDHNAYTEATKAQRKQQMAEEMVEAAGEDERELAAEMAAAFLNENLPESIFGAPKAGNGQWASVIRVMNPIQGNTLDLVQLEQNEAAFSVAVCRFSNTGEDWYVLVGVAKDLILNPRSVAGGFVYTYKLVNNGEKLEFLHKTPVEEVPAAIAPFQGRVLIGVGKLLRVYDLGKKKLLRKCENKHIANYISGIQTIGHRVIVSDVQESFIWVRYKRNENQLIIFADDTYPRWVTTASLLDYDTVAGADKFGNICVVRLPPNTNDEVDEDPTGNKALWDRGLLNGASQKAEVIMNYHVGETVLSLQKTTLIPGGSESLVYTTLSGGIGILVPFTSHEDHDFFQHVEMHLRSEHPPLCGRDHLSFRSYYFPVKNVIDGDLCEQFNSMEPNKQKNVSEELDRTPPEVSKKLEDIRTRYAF
T1 sequence (P29597 whole entry): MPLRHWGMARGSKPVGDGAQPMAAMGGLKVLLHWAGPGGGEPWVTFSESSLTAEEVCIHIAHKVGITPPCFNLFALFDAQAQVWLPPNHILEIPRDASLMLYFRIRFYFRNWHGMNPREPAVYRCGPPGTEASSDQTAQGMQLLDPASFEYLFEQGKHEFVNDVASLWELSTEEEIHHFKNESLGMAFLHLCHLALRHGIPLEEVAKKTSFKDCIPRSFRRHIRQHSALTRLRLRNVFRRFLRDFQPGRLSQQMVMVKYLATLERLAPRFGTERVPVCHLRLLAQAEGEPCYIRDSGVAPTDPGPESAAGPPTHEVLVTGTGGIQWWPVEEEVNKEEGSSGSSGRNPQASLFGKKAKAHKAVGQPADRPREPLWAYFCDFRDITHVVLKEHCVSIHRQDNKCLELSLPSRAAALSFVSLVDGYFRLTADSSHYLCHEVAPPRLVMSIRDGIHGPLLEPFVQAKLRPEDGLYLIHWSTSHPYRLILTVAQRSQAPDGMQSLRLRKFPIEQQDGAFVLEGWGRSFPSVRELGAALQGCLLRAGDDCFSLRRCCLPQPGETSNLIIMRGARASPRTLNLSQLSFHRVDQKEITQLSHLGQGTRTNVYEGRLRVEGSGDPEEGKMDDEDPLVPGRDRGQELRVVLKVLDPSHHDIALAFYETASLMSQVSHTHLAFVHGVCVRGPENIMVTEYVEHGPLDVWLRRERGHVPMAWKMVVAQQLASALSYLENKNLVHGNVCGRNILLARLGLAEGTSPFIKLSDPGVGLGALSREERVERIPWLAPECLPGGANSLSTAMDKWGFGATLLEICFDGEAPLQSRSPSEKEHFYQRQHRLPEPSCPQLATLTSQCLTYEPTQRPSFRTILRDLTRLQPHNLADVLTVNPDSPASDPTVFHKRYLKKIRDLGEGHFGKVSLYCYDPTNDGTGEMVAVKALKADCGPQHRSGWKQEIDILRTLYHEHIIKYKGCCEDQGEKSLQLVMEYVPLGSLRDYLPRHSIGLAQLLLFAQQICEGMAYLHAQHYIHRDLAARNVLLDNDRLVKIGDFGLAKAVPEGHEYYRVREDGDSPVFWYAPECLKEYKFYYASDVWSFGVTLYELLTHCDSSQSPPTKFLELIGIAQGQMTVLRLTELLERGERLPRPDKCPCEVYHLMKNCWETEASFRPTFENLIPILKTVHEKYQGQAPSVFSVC
T6 sequence (P04049 whole entry): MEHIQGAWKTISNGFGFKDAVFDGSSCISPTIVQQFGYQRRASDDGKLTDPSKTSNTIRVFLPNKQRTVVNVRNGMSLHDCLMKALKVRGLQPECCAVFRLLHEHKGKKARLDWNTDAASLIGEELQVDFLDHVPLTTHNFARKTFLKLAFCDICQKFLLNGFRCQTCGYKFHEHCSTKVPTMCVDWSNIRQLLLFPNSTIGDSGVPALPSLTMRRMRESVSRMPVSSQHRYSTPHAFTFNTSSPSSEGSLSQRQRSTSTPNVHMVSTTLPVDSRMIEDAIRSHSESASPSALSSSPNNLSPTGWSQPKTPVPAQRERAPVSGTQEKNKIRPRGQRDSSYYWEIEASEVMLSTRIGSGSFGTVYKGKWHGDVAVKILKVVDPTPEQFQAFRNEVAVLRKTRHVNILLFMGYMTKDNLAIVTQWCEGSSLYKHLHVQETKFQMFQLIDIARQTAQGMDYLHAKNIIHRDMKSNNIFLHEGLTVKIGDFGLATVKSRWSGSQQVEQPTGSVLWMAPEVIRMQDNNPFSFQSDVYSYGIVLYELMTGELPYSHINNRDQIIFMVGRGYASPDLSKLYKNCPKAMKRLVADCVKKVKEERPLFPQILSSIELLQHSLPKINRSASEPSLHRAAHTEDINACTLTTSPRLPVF

SMILES	Average LFQ PON_WT ([1]; TYK2, Non-receptor tyrosine-protein kinase TYK2)	Average LFQ PON_WT ([2]; COG5, Conserved oligomeric Golgi complex subunit 5)	Average LFQ PON_WT ([3]; SUB1, Activated RNA polymerase II transcriptional coactivator p15)	Average LFQ PON_WT ([4]; SF3A2, Splicing factor 3A subunit 2)	Average LFQ PON_WT ([5]; RPS14, 40S ribosomal protein S14)	Average LFQ PON_WT ([6]; RAF1, RAF proto-oncogene serine/threonine-protein kinase)	Average LFQ PON_WT ([7]; MARCKSL1, MARCKS-related protein)	Average LFQ PON_WT ([8]; SF3B3, Splicing factor 3B subunit 3)	Average LFQ PON_WT ([9]; SRRM2, Serine/arginine repetitive matrix protein 2)	Average LFQ intensity ([1]; captured protein TYK2, Rank 155)	Average LFQ intensity ([2]; captured protein COG5, Rank 186)	Average LFQ intensity ([3]; captured protein SUB1, Rank 126)	Average LFQ intensity ([4]; captured protein SF3A2, Rank 134)	Average LFQ intensity ([5]; captured protein RPS14, Rank 169)	Average LFQ intensity ([6]; captured protein RAF1, Rank 223)	Average LFQ intensity ([7]; captured protein MARCKSL1, Rank 225)	Average LFQ intensity ([8]; captured protein SF3B3, Rank 141)	Average LFQ intensity ([9]; captured protein SRRM2, Rank 197)
Cc1ccc(C(=O)Nc2ccc(CN3CCN(C)CC3)c(C(F)(F)F)c2)cc1C#Cc1cnc2cccnn12 [PON]	22.5645	22.09	22.9694	22.8464	22.2776	21.5684	21.5548	22.7469	21.862									
Cc1ccc(C(=O)Nc2ccc(CN3CCN(CCCN)CC3)c(C(F)(F)F)c2)cc1C#Cc1cnc2cccnn12 [c-ponatinib, reference compound]										22.5645	22.09	22.9694	22.8464	22.2776	21.5685	21.5548	22.7469	21.862
